Structures can show the parent of a compound that is named as a salt.
Assay: in vitro
Conditions: human, hek293t cells

Compound | viability at 48 h, 25 µM [%]
CC(Cl)C(=O)N1CCC(c2nccn2C)C1 (stereo not drawn) [6-F15, 2-chloro-1-[3-(1-methyl-1H-imidazol-2-yl)pyrrolidin-1-yl]propan-1-one] | 98.6
CC(Cl)C(=O)N1CCCCC1C1CCCN(C(=O)C(F)(F)F)C1 (stereo not drawn) [6-F16, 2-chloro-1-[1'-(2,2,2-trifluoroacetyl)-[2,3'-bipiperidin]-1-yl]propan-1-one] | 105
COc1ccc([C@H]2C[C@H](NC(=O)C(C)Cl)C2)cc1F (stereo partly drawn) [6-F17, 2-chloro-N-[(1r,3r)-3-(3-fluoro-4-methoxyphenyl)cyclobutyl]propanamide] | 91.5
CC(Cl)C(=O)N1CCn2c(Cc3c(F)cccc3F)nnc2C1 (stereo not drawn) [6-F18, 2-chloro-1-{3-[(2,6-difluorophenyl)methyl]-5H,6H,7H,8H-[1,2,4]triazolo[4,3-a]pyrazin-7-yl}propan-1-one] | 100
O=C(CCl)NC(CC1CC1)c1ccc(Cl)cn1 (stereo not drawn) [6-F19, 2-chloro-N-[1-(5-chloropyridin-2-yl)-2-cyclopropylethyl]acetamide] | 1.46
CC(Cl)C(=O)N1Cc2ccccc2C(n2cccn2)C1 (stereo not drawn) [6-F20, 2-chloro-1-[4-(1H-pyrazol-1-yl)-1,2,3,4-tetrahydroisoquinolin-2-yl]propan-1-one] | 103
CC(Cl)C(=O)NC1(c2nnc[nH]2)CCC1 (stereo not drawn) [6-F21, 2-chloro-N-[1-(4H-1,2,4-triazol-3-yl)cyclobutyl]propanamide] | 87.6
CC(Cl)C(=O)N1CCn2c(C#N)ccc2C1C (stereo not drawn) [6-F22, 2-(2-chloropropanoyl)-1-methyl-1H,2H,3H,4H-pyrrolo[1,2-a]pyrazine-6-carbonitrile] | 98.2
O=C(CCl)NCCOc1cccc(F)c1 [6-G03, 2-chloro-N-[2-(3-fluorophenoxy)ethyl]acetamide] | 97.9
O=C(CCl)NCc1ccc(C(=O)N2CCCC2)cc1 [6-G04, 2-chloro-N-{[4-(pyrrolidine-1-carbonyl)phenyl]methyl}acetamide] | 107
O=C(CCl)NCCOc1cccc(Cl)c1 [6-G05, 2-chloro-N-[2-(3-chlorophenoxy)ethyl]acetamide] | 107
CC(c1cccc([N+](=O)[O-])c1)N(C)C(=O)CCl (stereo not drawn) [6-G06, 2-chloro-N-methyl-N-[1-(3-nitrophenyl)ethyl]acetamide] | 1.19
CC(Cl)C(=O)Nc1ccc(NC(=O)c2cccs2)cc1 (stereo not drawn) [6-G07, N-[4-(2-chloropropanamido)phenyl]thiophene-2-carboxamide] | 101
O=C(CCl)NCc1ccc(OC(F)(F)F)cc1 [6-G08, 2-chloro-N-{[4-(trifluoromethoxy)phenyl]methyl}acetamide] | 1.3
COc1cc2c(cc1NC(=O)C(C)Cl)oc1ccccc12 (stereo not drawn) [6-G09, 2-chloro-N-{4-methoxy-8-oxatricyclo[7.4.0.0,2,7]trideca-1(9),2(7),3,5,10,12-hexaen-5-yl}propanamide] | 93
CC(Cl)C(=O)Nc1ccccc1C(=O)c1ccccc1 (stereo not drawn) [6-G10, N-(2-benzoylphenyl)-2-chloropropanamide] | 102
CC1CN(CCCNC(=O)CCl)CC(C)O1 (stereo not drawn) [6-G11, 2-chloro-N-[3-(2,6-dimethylmorpholin-4-yl)propyl]acetamide hydrochloride] | 116
O=C(CCl)N1CCC(CCc2ccccc2)CC1 [6-G12, 2-chloro-1-[4-(2-phenylethyl)piperidin-1-yl]ethan-1-one] | 1.05
COc1ccc(S(=O)(=O)N2CCCCC2)cc1NC(=O)CCl [6-G13, 2-chloro-N-[2-methoxy-5-(piperidine-1-sulfonyl)phenyl]acetamide] | 1.34
O=C(CCl)Nc1cc(S(=O)(=O)N2CCCC2)ccc1Cl [6-G14, 2-chloro-N-[2-chloro-5-(pyrrolidine-1-sulfonyl)phenyl]acetamide] | 1.44
COc1ccc(Cl)cc1NC(=O)C(C)Cl (stereo not drawn) [6-G16, 2-chloro-N-(5-chloro-2-methoxyphenyl)propanamide] | 112

— PMC11995724, “Antibiotic target discovery by integrated phenotypic and activity-based profiling of electrophilic fragments” (Cell chemical biology, 2025)
